{"source": "paper PMC4213378", "about": "“Pharmacokinetics and Efficacy of the Spleen Tyrosine Kinase Inhibitor R406 after Ocular Delivery for Retinoblastoma” (Pharmaceutical Research, 2014)", "system": "SJ-39 retinoblastoma cells", "experiment": "Efficacy in human orthotopic xenograft mouse model of retinoblastoma (event-free survival)", "format": "in vivo", "description": "Preclinical testing was carried out in human orthotopic xenograft mice using the methods previously described ([10], [11]). SJ-39 retinoblastoma cells were injected into the vitreous of 30 immunocompromised mice (J:NU, The Jackson Laboratory (Bar Harbor, ME, USA)): 10 were untreated and 20 received subconjunctival injections of R406 in solution formulation (R406^oc) and systemic topotecan (TPT^syst) combination therapy administered over a 5-day course every third week as follows: 10 μL R406 per eye at a concentration of […] (8–9 nanomoles/eye) on day 1, and TPT^syst (0.7 mg/kg per dose, i.p.) on days 1 to 5 (see Fig. 1a). Mice were scheduled to receive six courses of therapy (18 weeks total). Before each course of therapy, mice were examined and intraocular pressure (IOP) was read as previously described ([10], [11]). If intraocular pressure was elevated above normal (IOP > 20) or eye rupture was observed, mice were taken off study and time to event was recorded. At the completion of the study event-free survival (EFS) was analyzed for the R406^oc/TPT^syst treated and untreated groups.\nSince R406 is the SYK inhibitor farthest along in clinical development (Phase 3), and therefore the most likely compound to be tested clinically against retinoblastoma, we decided to focus upon its evaluation. In order to test the efficacy of R406 in vivo, we developed a solution formulation using FDA approved adjuvants for ophthalmic applications ([11]). The maximum concentration of R406 in solution was approximately 900 μM and R406 was chemically stable in formulation for 48 h at room temperature (Table S3 and Fig. S2). Next, we performed in vivo efficacy studies using the solution formulation of R406 in combination with systemic topotecan (standard for our preclinical evaluation of new retinoblastoma agents ([11]) following a clinically relevant dose and schedule as was previously done for nutlin-3a and BAY-61-3606 ([6], [11]). SJ-39 retinoblastoma cells were injected into the vitreous of 30 immunocompromised mice and animals were randomized into two treatment groups: 20 received subconjunctival injections of R406 in solution formulation (R406^oc) and systemic topotecan (TPT^syst) combination therapy administered over a 5-day course every third week (see Fig. 1a) and 10 were untreated. Animals were scheduled to receive 6 courses of treatment (18 weeks total), but no animal completed the entire 6 courses. All animals were taken off study by 63 days due to elevated intraocular pressure (IOP > 20) or eye rupture. Event free survival (EFS) was analyzed for the two groups (Fig. 1b). […]"}
{"smiles": "COc1cc(Nc2ncc(F)c(Nc3ccc4c(n3)NC(=O)C(C)(C)O4)n2)cc(OC)c1OC", "note": "[R406]", "values": [{"measurement": "proportion of event free survivals at 21 days", "setting": "subconjunctival R406 solution 8–9 nmol/eye day 1 + systemic topotecan 0.7 mg/kg i.p. days 1-5, every third week, n=20, untreated 50%", "value": 90, "unit": "%"}, {"measurement": "time by which all animals were taken off study (IOP > 20 or eye rupture)", "setting": "subconjunctival R406 solution + systemic topotecan", "value": "≤ 63", "unit": "days"}, {"measurement": "proportion of event free survivals at 42 days", "setting": "subconjunctival R406 solution + systemic topotecan, untreated 0%", "value": 30, "unit": "%"}, {"measurement": "Median event free survival", "setting": "subconjunctival R406 solution + systemic topotecan, untreated 32.5 days, log-rank p = 0.005", "value": 42, "unit": "days"}]}
